This is an account of results in article PMC4409337, “Immucillins Impair Leishmania (L.) infantum chagasi and Leishmania (L.) amazonensis Multiplication In Vitro” (PLoS ONE, 2015).

Molecules are shown by their SMILES. pIC50, pKi: −log10 of the molar value. A value given as a limit tells only on which side of the number the result lay.

Test [1] has as its system intracellular amastigotes of L. (L.) infantum chagasi. Particulars: ref 44; read-out: IC50 against intracellular amastigotes; cited from earlier work.
Test [2] concerns Nucleoside hydrolase NH36 of L. (L.) donovani. It counts as biochemical, Leishmania (L.) donovani. The note with it: substrate of NH36; for k cat /K m: catalytic efficiency; for K m / k cat: 25°C, 50 mM Hepes pH 7.4. The protocol:
(§1) BL21DE3 E.coli were transformed with the synthetic plasmid pET 28b encoding the gene of NH36 of Leishmania (L.) donovani (EMBL, Genbank and DDJB data bases, access number AY007193) with a His6tag at the C-terminal. Expression was induced with 0.5 mM IPTG and overnight incubation at 20°C. Purification of NH36 was performed on a column of Ni-NTA Superflow resin (Qiagen, USA) eluted by a stepwise imidazole gradient and monitored by SDS-polyacrylamide gel electrophoresis and protein assay. The extinction coefficient of NH36 is 21.437 mM^-1 cm^-1 at 280 nm, as calculated with the ProtParam program from ExPASy, and was used to estimate protein concentration (http://ca.expasy.org/seqanalref/). The yield of NH36 after purification was 11.87 mg per Liter of bacterial growth culture. Non-specific His-proteins with weak interactions were eluted with 50–100 mM imidazole (S1 Fig). The purified NH36 started to elute with 150 mM imidazole. We used 250 mM of imidazol in elution buffer for purification of NH36.
Steady-state kinetic rates for NH36 were determined on the substrates inosine, guanosine, adenosine, uridine and cytidine. Hypoxanthine and adenine formation were coupled to xanthine oxidase (12.9 mM^-1 cm^-1 at 293 nm and 15.2 mM^-1 cm^-1 at 305 nm, respectively), and the others were followed by direct uv absorbance changes resulting from cleavage of the N-ribosidic bond. Reaction mixtures contained 50 mM Hepes (pH 7.4), 100 mM NaCl and 5 mM of DTT. One unit, and 0.1 unit of xanthine oxidase (XOD) were used as the coupling enzyme to the adenosine and inosine assays, respectively. Spectral changes for hydrolysis of guanosine, uridine and cytidine were 5.4 mM^-1 cm^-1 at 257 nm,1.8 mM^-1 cm^-1 at 280 nm and 1.8 mM^-1 cm^-1 at 288 nm, respectively. Variable concentrations of substrate and appropriate amounts of purified NH36 were added in all assays. The hydrolysis of nucleosides to bases and ribose was followed by continuous recording of optical absorbance after addition of the enzyme, in a CARY 300 UV-visible spectrophotometer. Control rates with no enzyme addition were subtracted from initial rates. Reactions with substrates were conducted at 25°C using 1 cm path length cuvettes containing 1 mL reaction volumes. Kinetic parameters of NH36 were obtained by fitting initial rates to the Michaelis−Menten equation using GraFit 5 (Erithacus Software).

The target in test [3] is T1, Nucleoside hydrolase NH36 (Leishmania donovani, UniProt Q8WQX2).
T1 sequence (Q8WQX2 1-314): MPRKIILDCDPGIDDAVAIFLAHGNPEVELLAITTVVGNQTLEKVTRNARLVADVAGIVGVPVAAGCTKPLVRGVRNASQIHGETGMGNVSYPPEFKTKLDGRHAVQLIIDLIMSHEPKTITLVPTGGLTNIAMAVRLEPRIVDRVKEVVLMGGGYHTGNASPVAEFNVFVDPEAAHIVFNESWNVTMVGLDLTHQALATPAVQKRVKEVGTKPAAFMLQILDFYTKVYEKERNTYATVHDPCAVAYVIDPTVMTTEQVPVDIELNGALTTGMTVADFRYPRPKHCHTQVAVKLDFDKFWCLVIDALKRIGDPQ
As to the kind of experiment: Ki determination: inhibition of NH36 activity by immucillins. It counts as biochemical, Leishmania (L.) donovani. The note with it: 10 mM inosine as substrate, 0.5 nM NH36, pH 7.4, room temperature. The protocol: as §1
The reaction mixtures contained 10 mM inosine as substrate, 50 mM Hepes (pH 7.4), 100 mM KCl, 5 mM DTT and 1 unit XOD. The hydrolysis of inosine to hypoxanthine and ribose was followed by continuous reading of optical absorbance at 293 nm, using variable concentrations of inhibitors in a CARY 300UV-visible spectrophotometer. Controls without enzyme and without inhibitors were included in all inhibition assays. The inhibition constant for each immucillin was obtained, using GraFit 5 (Erithacus Software), by fitting initial rates with variable inhibitor concentrations to the equation (vi/v0 = [S] / Km + [S] + Km[I] / Ki), where v i is the initial rate in the presence of the inhibitor, v 0 is the initial rate in the absence of the inhibitor, K m is the Michaelis constant for inosine, [S] and [I] are inosine and inhibitor concentrations, respectively, and Ki is the inhibition constant.

Test [4] deals with L. (L.) infantum chagasi promastigotes. The experiment in a line: In vitro growth of promastigotes in FBS supplemented Schneider's insect medium. It counts as cell-based, Leishmania (L.) infantum chagasi. Particulars: Leishmania infantum; for pIC50: single addition at 0 h, evaluated after 48 hours, 26°C, read-out: IC50 (CI 95%) on L. (L.) infantum chagasi promastigotes in vitro growth; for inhibition at 500 µM: after 96 h of culture, read-out: percent inhibition on L. (L.) infantum chagasi promastigote growth. The text has this:
The strain of Leishmania (L.) infantum chagasi MHOM/BR/1974/PP75 was obtained from the Leishmania Type Culture Collection (Fundacão Oswaldo Cruz, Rio de Janeiro, RJ, Brazil) and the strain of Leishmania (L.) amazonensis (MHOM/BR/1975/Josefa) was kindly given by Professor Rosâ[…] from Universidade Federal do Rio de Janeiro. Promastigotes were maintained by weekly transfers in screw-capped glass tubes containing Schneider's insect medium (Sigma Aldrich, MO, USA), pH 7.0, supplemented with 10% Fetal Bovine Serum (FBS) at 26°C. […] Log phase promastigotes of L. (L.) infantum chagasi and L. […] Promastigotes were recorded in a Neubauer chamber after 24, 48, 72 and 96 hours of incubation at 26°C. […] The concentration of adenosine in Schneider s insect serum supplemented medium was assessed by HPLC using a C-18 reverse-phase column as described.

Test [5] deals with L. (L.) amazonensis promastigotes. The description is as above. Particulars: Leishmania amazonensis; for inhibition at 500 µM: after 96 h of culture, read-out: percent inhibition on L. (L.) amazonensis replication; for pIC50: single addition at 0 h, evaluated after 48 hours, 26°C, read-out: IC50 (CI 95%) on L. (L.) amazonensis promastigotes in vitro growth. The test is classed as cell-based, Leishmania (L.) amazonensis. The text has this:
The strain of Leishmania (L.) infantum chagasi MHOM/BR/1974/PP75 was obtained from the Leishmania Type Culture Collection (Fundacão Oswaldo Cruz, Rio de Janeiro, RJ, Brazil) and the strain of Leishmania (L.) amazonensis (MHOM/BR/1975/Josefa) was kindly given by Professor Rosâ[…] from Universidade Federal do Rio de Janeiro. Promastigotes were maintained by weekly transfers in screw-capped glass tubes containing Schneider's insect medium (Sigma Aldrich, MO, USA), pH 7.0, supplemented with 10% Fetal Bovine Serum (FBS) at 26°C. Stock solutions (20 mM) of immucillins IA […] prepared using Milli-Q purified water. Log phase promastigotes of L. (L.) infantum chagasi and L. […] Promastigotes were recorded in a Neubauer chamber after 24, 48, 72 and 96 hours of incubation at 26°C. […] We also assayed the possibility of reversing the inhibitory effect of IA in RPMI medium by the addition of adenosine to the culture medium. The concentration of adenosine in Schneider s insect serum supplemented medium was assessed by HPLC using a C-18 reverse-phase column as described.

For another test, the system named is NH of L. (L.) major. The arrangement: method as in PMID 10409664. Particulars: unit inferred; cited from earlier work.

Consider `NC[C@@H]1O[C@H](O[C@H]2[C@@H](O)[C@H](O[C@@H]3[C@@H](O)[C@H](N)C[C@H](N)[C@H]3O[C@H]3O[C@H](CO)[C@@H](O)[C@H](O)[C@H]3N)O[C@@H]2CO)[C@H](N)[C@@H](O)[C@@H]1O` [Paramomycin], for which, in test [1], the pIC50 (usually −log10 of the IC50, conventionally taken in molar units) was 3.47.

As to `Nc1nc2c(ncn2[C@@H]2O[C@H](CO)[C@@H](O)[C@H]2O)c(=O)[nH]1` [Guanosine], in test [2], the “k cat /K m” value is 1200 M⁻¹ s⁻¹, the K m came out at 380 ± 153 µM and the k cat was 0.47 ± 0.1 s ^-1.

On to `CCCCCCCCCCCCCCCCOP(=O)([O-])OCC[N+](C)(C)C` [Miltefosine], for which the pIC50 in test [1] is 5.36.

As to `Nc1ncnc2c(CNC(CO)CO)c[nH]c12` [SMIA], the pKi (in general, the negative decadic logarithm of the Ki, by convention in mol/L) in test [3] was less than 5.30. Moreover, in test [4], the pIC50 was 3.46 and the inhibition (in general, the change of the read-out against control, counted positive when it falls) at 500 µM amounted to 71%. In addition, in test [5], the inhibition at 500 µM was determined as 71% and the negative logarithm of the IC50 (pIC50) is 3.80.

On to `Nc1ncnc2c(CN3C[C@H](CO)[C@@H](O)C3)c[nH]c12` [DIA], for which, in test [3], the negative logarithm of the Ki (pKi) was less than 5.30. In test [4], the pIC50 was 3.96 and the inhibition at 500 µM was found to be 69%. In addition, in test [5], the inhibition at 500 µM worked out at 16%.

In the case of `Nc1ccn([C@@H]2O[C@H](CO)[C@@H](O)[C@H]2O)c(=O)n1` [Cytidine], in test [2], the “k cat /K m” value was determined as 9300 M⁻¹ s⁻¹, the K m is given as 1,403 ± 282 μM and the k cat stood at 13.1 ± 1.1 s ^-1. For the same compound, the k cat in the test on NH of L. (L.) major was 0.36 s⁻¹.

As to `CC[C@H]1OC(=O)[C@H](C)[C@@H](O[C@H]2C[C@@](C)(OC)[C@@H](O)[C@H](C)O2)[C@H](C)[C@@H](O[C@@H]2O[C@H](C)C[C@H](N(C)C)[C@H]2O)[C@](C)(O)C[C@@H](C)CN(C)[C@H](C)[C@@H](O)[C@]1(C)O` [Azitromycin], the negative logarithm of the IC50 (pIC50) in test [1] is 4.70.

Compound `Nc1nc2c(CN3C[C@H](CO)[C@@H](O)C3)c[nH]c2c(=O)[nH]1` [DIG] showed a pKi in test [3] of less than 5.30. In addition, in test [4], the pIC50 was 4.63 and the inhibition at 500 µM came to 68%. Moreover, in test [5], the inhibition at 500 µM amounted to 67% and the pIC50 is 4.40.

With `Nc1ncnc2c1ncn2[C@@H]1O[C@H](CO)[C@@H](O)[C@H]1O` [Adenosine], in test [2], the “k cat /K m” value came out at 53000 M⁻¹ s⁻¹, the K m was 70 ± 30 µM and the k cat was determined as 3.7 ± 0.1 s ^-1. For the same compound, the k cat with NH of L. (L.) major was 0.57 s⁻¹.

`Nc1nc2c(CNC(CO)CO)c[nH]c2c(=O)[nH]1` [SMIG] showed a negative logarithm of the Ki (pKi) in test [3] of 5.74. Besides, in test [4], the pIC50 is 4.59 and the inhibition at 500 µM was determined as 70%. The pIC50 in test [5] was 4.53.

The compound `O=c1[nH]cnc2c(CN3C[C@H](CO)[C@@H](O)C3)c[nH]c12` [DIH] had a pKi in test [3] of less than 5.30. Moreover, in test [4], the pIC50 is 5.74 and the inhibition at 500 µM is 89%. Also, in test [5], the inhibition at 500 µM was found to be 89% and the pIC50 is 5.47.

For `C[C@@H]1[C@H](O)[C@@H](C)/C=C/C=C/C=C/C=C/C=C/C=C/C=C/[C@H](O[C@@H]2O[C@H](C)[C@@H](O)[C@H](N)[C@@H]2O)C[C@@H]2O[C@](O)(C[C@@H](O)C[C@@H](O)[C@H](O)CC[C@@H](O)C[C@@H](O)CC(=O)O[C@H]1C)C[C@H](O)[C@H]2C(=O)O` [Amphotericin], the negative-log IC50 (pIC50) in test [1] is 7.40.
